# Publication PMC9056986 (RSC Advances, 2020)
# Target: HCV-NS3/4A protease (Hepacivirus hominis (Hepatitis C virus), UniProt O92972)
# Experiment: HCV-NS3/4A protease inhibition, in vitro FRET assay
# Assay type: biochemical
# Settings: IC50, purified HCV-NS3/4A protease
# Sequence of HCV-NS3/4A protease (O92972 1027-1207, other chains not shown): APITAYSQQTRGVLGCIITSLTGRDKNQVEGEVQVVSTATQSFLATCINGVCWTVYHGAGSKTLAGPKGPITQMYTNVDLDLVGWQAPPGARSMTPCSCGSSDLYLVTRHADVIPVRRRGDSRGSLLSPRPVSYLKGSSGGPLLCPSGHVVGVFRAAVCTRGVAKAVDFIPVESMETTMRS
row,IC50 [µM],Structure (SMILES)
1,22.3 ± 0.46,"Cn1c(NN)nc2cc3ccccc3cc2c1=O [Compound 7, 3-Methyl-2-hydrazinylbenzo[g]quinazolin-4(3H)-one]"
2,78.8 ± 1.7,"CCn1c(NN)nc2cc3ccccc3cc2c1=O [Compound 8, 3-Ethyl-2-hydrazinyl-benzo[g]quinazolin-4(3H)-one]"
3,25.5 ± 0.55,"Cc1ccc2nc(NN)n(C)c(=O)c2c1 [Compound 14, 3-Methyl-2-hydrazinyl-6-methyl-3H-quinazolin-4-one]"
4,178 ± 3.9,"CCn1c(NN)nc2ccc(C)cc2c1=O [Compound 15, 3-Ethyl-2-hydrazinyl-6-methyl-3H-quinazolin-4-one]"
